ChEMBL document CHEMBL1127581, “Evolution of a novel series of [(N,N-dimethylamino)propyl]- and piperazinylbenzanilides as the first selective 5-HT1D antagonists” (J Med Chem, 1994)

How the values were obtained:
[1] = molecular target: 5-hydroxytryptamine receptor 1D (Cavia porcellus, UniProt Q60484); experiment: In vitro binding affinity towards 5-hydroxytryptamine 1D receptor in guinea-pig striatum in presence of BMY-7378 and mesulergine; assay type: tissue-based
[2] = molecular target: T1, Muscarinic acetylcholine receptor M2 (Homo sapiens, UniProt P08172); experiment: Binding affinity against muscarinic M2 receptor
T1 sequence (P08172 whole entry): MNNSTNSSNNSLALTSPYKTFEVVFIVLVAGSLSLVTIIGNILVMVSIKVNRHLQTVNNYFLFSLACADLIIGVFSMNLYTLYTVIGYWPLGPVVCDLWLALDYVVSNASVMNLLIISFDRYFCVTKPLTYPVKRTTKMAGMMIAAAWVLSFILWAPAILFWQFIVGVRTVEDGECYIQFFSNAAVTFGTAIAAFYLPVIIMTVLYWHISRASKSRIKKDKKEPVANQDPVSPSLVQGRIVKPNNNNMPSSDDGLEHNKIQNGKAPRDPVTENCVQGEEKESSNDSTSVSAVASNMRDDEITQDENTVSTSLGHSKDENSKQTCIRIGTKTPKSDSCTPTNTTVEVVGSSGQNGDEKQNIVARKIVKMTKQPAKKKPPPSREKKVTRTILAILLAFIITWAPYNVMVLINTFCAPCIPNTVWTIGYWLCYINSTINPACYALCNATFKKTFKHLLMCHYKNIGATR

[3] = molecular target: 5-hydroxytryptamine receptor 1B (Rattus norvegicus, UniProt P28564); experiment: In vitro binding affinity towards 5-hydroxytryptamine 1B receptor in rat striatal membrane with [125I]- iodocyanopindolol; assay type: cell membranes, Striatum
5-hydroxytryptamine receptor 1B, sequence (P28564 whole entry): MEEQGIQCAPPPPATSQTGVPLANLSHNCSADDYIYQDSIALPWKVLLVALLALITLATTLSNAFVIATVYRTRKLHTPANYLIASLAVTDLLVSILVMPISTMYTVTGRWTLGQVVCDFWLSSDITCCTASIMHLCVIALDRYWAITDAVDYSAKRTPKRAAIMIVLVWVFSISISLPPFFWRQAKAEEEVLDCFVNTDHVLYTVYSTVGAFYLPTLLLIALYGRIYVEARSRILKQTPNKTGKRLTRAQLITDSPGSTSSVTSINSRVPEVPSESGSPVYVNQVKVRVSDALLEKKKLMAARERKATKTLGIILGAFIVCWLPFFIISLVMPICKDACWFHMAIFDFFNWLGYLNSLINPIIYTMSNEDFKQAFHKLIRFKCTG

[4] = molecular target: 5-hydroxytryptamine receptor 1D (Cavia porcellus) (UniProt Q60484); experiment: Oral effective dose against hypothermia in the guinea pig caused by stimulation of central 5-hydroxytryptamine 1D receptors by the agonist GR-46611;range is 0.2-0.4; assay type: functional
5-hydroxytryptamine receptor 1D (Cavia porcellus), sequence (Q60484 whole entry): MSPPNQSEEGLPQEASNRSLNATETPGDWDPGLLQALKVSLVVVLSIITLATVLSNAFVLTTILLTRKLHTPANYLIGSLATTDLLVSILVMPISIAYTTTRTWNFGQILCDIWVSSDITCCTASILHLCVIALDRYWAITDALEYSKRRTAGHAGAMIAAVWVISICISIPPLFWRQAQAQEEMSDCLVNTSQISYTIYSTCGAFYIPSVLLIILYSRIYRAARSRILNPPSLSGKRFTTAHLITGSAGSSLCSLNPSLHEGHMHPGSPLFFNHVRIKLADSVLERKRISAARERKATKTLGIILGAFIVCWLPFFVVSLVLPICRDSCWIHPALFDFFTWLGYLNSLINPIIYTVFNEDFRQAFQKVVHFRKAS

[5] = molecular target: Muscarinic acetylcholine receptor M3 (Homo sapiens, UniProt P20309); experiment: Binding affinity against muscarinic M3 receptor
Muscarinic acetylcholine receptor M3, sequence (P20309 whole entry): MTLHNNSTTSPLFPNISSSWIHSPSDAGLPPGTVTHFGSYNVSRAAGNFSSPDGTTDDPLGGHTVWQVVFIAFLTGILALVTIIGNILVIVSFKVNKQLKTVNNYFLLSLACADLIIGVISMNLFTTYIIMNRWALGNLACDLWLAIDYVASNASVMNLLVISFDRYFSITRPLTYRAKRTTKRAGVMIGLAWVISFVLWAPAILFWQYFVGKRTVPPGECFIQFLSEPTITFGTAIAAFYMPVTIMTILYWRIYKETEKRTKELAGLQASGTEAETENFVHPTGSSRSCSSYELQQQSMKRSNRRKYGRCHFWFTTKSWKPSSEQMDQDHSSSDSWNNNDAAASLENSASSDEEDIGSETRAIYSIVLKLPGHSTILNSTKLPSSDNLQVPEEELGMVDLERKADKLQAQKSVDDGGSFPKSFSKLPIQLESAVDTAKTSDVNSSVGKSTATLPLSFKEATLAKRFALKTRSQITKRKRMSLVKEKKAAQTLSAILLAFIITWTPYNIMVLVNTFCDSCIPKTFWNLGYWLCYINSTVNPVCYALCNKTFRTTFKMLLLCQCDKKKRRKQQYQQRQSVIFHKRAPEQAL

[6] = molecular target: T2, Adrenergic receptor alpha-1 (Homo sapiens, UniProt P35348+P25100+P35368); experiment: Binding affinity against alpha-1 adrenoceptor; assay type: protein assay
T2 sequence (P35348 whole entry): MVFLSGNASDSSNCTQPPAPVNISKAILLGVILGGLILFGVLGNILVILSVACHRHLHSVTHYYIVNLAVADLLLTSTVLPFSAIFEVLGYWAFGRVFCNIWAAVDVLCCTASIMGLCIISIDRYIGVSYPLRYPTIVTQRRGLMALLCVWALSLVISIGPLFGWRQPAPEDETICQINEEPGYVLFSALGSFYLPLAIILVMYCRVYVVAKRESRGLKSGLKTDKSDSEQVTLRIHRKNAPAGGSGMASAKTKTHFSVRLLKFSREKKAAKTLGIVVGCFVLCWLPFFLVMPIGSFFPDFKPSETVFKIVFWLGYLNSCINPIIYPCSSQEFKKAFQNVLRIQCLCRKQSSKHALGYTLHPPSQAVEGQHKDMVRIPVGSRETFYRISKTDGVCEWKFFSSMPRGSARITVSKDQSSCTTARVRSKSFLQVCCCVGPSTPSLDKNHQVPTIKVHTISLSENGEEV
T2 sequence (P25100 whole entry): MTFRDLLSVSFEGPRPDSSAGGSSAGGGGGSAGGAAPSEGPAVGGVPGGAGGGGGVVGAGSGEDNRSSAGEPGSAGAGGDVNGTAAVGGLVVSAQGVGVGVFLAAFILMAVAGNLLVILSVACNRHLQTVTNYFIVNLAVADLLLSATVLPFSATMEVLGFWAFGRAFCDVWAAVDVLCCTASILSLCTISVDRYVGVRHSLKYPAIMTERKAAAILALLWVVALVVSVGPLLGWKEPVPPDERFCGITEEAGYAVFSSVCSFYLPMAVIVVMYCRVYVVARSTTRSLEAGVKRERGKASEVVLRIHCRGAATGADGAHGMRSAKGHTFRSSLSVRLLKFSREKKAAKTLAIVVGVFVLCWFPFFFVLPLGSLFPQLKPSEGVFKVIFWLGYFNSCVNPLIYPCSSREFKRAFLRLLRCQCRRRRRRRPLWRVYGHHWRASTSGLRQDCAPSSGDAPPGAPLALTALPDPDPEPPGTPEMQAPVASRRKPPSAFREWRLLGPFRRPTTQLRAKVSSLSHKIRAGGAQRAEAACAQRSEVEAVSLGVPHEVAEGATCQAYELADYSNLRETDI
T2 sequence (P35368 whole entry): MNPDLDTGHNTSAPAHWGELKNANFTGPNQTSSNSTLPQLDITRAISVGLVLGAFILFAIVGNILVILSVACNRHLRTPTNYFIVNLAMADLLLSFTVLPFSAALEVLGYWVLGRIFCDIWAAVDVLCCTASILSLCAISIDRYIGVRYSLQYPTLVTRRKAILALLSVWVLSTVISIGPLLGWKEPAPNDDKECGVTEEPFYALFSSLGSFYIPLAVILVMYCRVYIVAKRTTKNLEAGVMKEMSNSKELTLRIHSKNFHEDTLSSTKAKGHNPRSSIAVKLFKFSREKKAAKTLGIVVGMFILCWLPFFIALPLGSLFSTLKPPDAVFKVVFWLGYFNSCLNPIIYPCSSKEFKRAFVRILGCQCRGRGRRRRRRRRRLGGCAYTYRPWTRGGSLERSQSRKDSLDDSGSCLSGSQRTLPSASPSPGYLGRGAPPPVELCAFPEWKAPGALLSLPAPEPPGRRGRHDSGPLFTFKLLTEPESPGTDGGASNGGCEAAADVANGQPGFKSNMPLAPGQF

5-hydroxytryptamine receptor 1D, sequence (Q60484 whole entry): as the sequence (Q60484 whole entry) above

COc1ccc(NC(=O)c2ccc(-c3ccc(-c4noc(C)n4)cc3C)cc2)cc1N1CCN(C)CC1 [GR-127935]
Ki [1]: 3.16 nM | Ki [2]: > 1000 nM | Ki [3]: 3.16 nM | ED50 [4]: 0.3 mg/kg | Ki [5]: > 1000 nM | Log Ki [6]: > -6
